This test relates to E. coli. The experiment in a line: Disk diffusion method, zone of inhibition. In kind it is cell-based, Escherichia coli. The method, then: Working solutions were prepared by dissolving of N-alkylimidazoles (100 mg) in ethanol (50 μL). Blank disks were impregnated with 10 μL of solution and the disks placed on nutrient agar containing a confluent E. coli culture. The plates were incubated at 37° C. for 18-24 h and antimicrobial activity determined by measuring the zone of inhibition. The experiments were performed in triplicate.
The antibacterial activity of N-alkylimidazoles was investigated by the disk diffusion and broth methods against E. coli as a model microorganism.
(In general: A growth-free zone around the sample is the usual read-out of agar diffusion tests.)

For “silver(I)-N-octylimidazole complex [Ag(octlm)2]”, the “antibacterial activity (in words)” value (disk diffusion against E. coli, comparison across alkyl chain lengths) was “superior activity”. Further, the “Zone of inhibition diameter” value (disk diffusion, nutrient agar with confluent E. coli culture, 37° C., 18-24 h, triplicate) is given as 21 ± 1.4 mm.

The values are drawn from patent US20180255777A1, “Metal Ion Complex-Modified Layered Silicates” (priority 2017, published 2018).
